According to patent US9796700B2 (Celgene CAR LLC, priority 2013, dated 2017):

What was measured:
[1] = biological target: MEK1 activated ERK1 (Homo sapiens (Human), UniProt P27361); assay: Omnia continuous-read kinase assay for potency against MEK1 activated ERK1; assay type: biochemical; settings: MEK1 activated ERK1, WT, ATP at KM
How it was run: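 Apparent IC50 came from initial reaction slopes (RFU vs time) plotted against log inhibitor with a variable-slope fit. Reactions were started with ERK1 (4 nM final) added to 50 μM ATP, roughly at its appKM, and 10 μM Sox-conjugated ST17 peptide in 20 mM Tris pH 7.5, 5 mM MgCl2. Fluorescence was monitored every 71 seconds.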

[2] = biological target: Erk1 (Homo sapiens (Human), UniProt P27361); assay: Protein Mass Modification Assay (intact protein MALDI); assay type: binding
Sequence of Erk1 (P27361 whole entry, looked up): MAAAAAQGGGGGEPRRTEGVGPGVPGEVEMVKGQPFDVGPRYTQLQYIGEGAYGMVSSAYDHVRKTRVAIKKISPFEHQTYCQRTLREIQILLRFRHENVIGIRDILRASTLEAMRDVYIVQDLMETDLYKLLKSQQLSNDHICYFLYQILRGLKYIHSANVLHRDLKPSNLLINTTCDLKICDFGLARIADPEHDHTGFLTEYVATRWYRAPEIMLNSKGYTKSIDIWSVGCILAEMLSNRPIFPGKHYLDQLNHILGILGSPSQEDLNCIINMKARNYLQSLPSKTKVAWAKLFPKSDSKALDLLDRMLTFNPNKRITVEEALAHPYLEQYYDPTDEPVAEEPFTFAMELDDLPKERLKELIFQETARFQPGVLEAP
How it was run: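 Human Erk1 was incubated 60 min at room temperature with a 10-fold molar excess of compound, then analysed as intact protein by MALDI with sinapinic acid matrix. The centroid mass shift versus untreated protein was divided by compound molecular weight to give percent modified protein.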

Sequence of MEK1 activated ERK1 (P27361 whole entry): as the sequence (P27361 whole entry, looked up) above

SMILES	IC50 [1]	ERK1 Mass Mod (%) [2]
C=CC(=O)Nc1cc(OC)ccc1Nc1nc(Nc2cc(OC)nc(N3CCN(C(C)=O)CC3)c2)ncc1Cl [Compound I-297, N-(2-((2-((2-(4-acetylpiperazin-1-yl)-6-methoxypyridin-4-yl)amino)-5-chloropyrimidin-4-yl)amino)-5-methoxyphenyl)acrylamide]	< 100 nM	E (provided a mass modification of ≧70%)
C=CC(=O)Nc1cccc(Nc2nc(Nc3ccc(N4CCN(C(C)=O)CC4)cc3OC)ncc2Cl)c1 [Compound I-298, N-(3-((2-((4-(4-acetylpiperazin-1-yl)-2-methoxyphenyl)amino)-5-chloropyrimidin-4-yl)amino)phenyl)acrylamide]	> 1000 nM	G (proived a mass modification ≦30%)
C=CC(=O)Nc1ccccc1Nc1nc(Nc2ccc(OCCCNC(=O)CCCC(=O)NCCCOCCOCCOCCCNC(=O)CCCC[C@H]3SC[C@H]4NC(=O)N[C@H]43)cc2OC)ncc1Cl [Compound I-302, N^1-(3-(4-((4-((2-acrylamidophenyl)amino)-5-chloropyrimidin-2-yl)amino)-3-methoxyphenoxy)propyl)-N^5-(15-oxo-19-((3aR,4R,6aS)-2-oxohexahydro-1H-thieno[3,4-d]imidazol-4-yl)-4,7,10-trioxa-14-azanonadecyl)glutaramide]	> 1000 nM	E (provided a mass modification of ≧70%)
C=CC(=O)Nc1ccccc1Nc1nc(N[C@H]2CCCN(C(=O)CCCC(=O)NCCCOCCOCCOCCCNC(=O)CCCC[C@@H]3SC[C@@H]4NC(=O)N[C@@H]43)C2)ncc1Cl [Compound I-303, 5-((S)-3-((4-((2-acrylamidophenyl)amino)-5-chloropyrimidin-2-yl)amino)piperidin-1-yl)-5-oxo-N-(15-oxo-19-((3aS,4S,6aR)-2-oxohexahydro-1H-thieno[3,4-d]imidazol-4-yl)-4,7,10-trioxa-14-azanonadecyl)pentanamide]	> 1000 nM	E (provided a mass modification of ≧70%)
COc1cc(N2CCOCC2)ccc1Nc1ncc(N)c(Nc2ccccc2N)n1 [Compound I-312, N^4-(2-aminophenyl)-N^2-(2-methoxy-4-morpholinophenyl)pyrimidine-2,4,5-triamine]	> 1000 nM	G (proived a mass modification ≦30%)
C=CC(=O)Nc1cc(F)ccc1Nc1nc(Nc2cc(OC)ncc2C)ncc1C(F)(F)F [Compound I-322, N-(5-fluoro-2-((2-((2-methoxy-5-methylpyridin-4-yl)amino)-5-(trifluoromethyl)pyrimidin-4-yl)amino)phenyl)acrylamide]	< 100 nM	E (provided a mass modification of ≧70%)
C=CC(=O)Nc1cc(C)ccc1Nc1nc(Nc2cc(OC)nc(N3CC(O)C3)c2)ncc1C(F)(F)F [Compound I-328, N-(2-((2-((2-(3-hydroxyazetidin-1-yl)-6-methoxypyridin-4-yl)amino)-5-(trifluoromethyl)pyrimidin-4-yl)amino)-5-methylphenyl)acrylamide]	< 100 nM	E (provided a mass modification of ≧70%)
C=CC(=O)Nc1cc(C)ccc1Nc1nc(Nc2cc(OC)nc(N3CCC3)c2)ncc1C(F)(F)F [Compound I-329, N-(2-((2-((2-(azetidin-1-yl)-6-methoxypyridin-4-yl)amino)-5-(trifluoromethyl)pyrimidin-4-yl)amino)-5-methylphenyl)acrylamide]	> 1000 nM	E (provided a mass modification of ≧70%)
C=CC(=O)Nc1cc(C)ccc1Nc1nc(Nc2cc(OC)nc(N3CCC(O)CC3)c2)ncc1C(F)(F)F [Compound I-332, N-(2-((2-((2-(4-hydroxypiperidin-1-yl)-6-methoxypyridin-4-yl)amino)-5-(trifluoromethyl)pyrimidin-4-yl)amino)-5-methylphenyl)acrylamide]	> 1000 nM	E (provided a mass modification of ≧70%)
C=CC(=O)Nc1cc(OC)ccc1Nc1nc(Nc2cc(OC)nc(N3CCN(C)CC3)c2)ncc1C(F)(F)F [Compound I-334, N-(5-methoxy-2-((2-((2-methoxy-6-(4-methylpiperazin-1-yl)pyridin-4-yl)amino)-5-(trifluoromethyl)pyrimidin-4-yl)amino)phenyl)acrylamide]	< 100 nM	E (provided a mass modification of ≧70%)
C=CC(=O)Nc1cc(C)ccc1Nc1nc(Nc2cnnc(OC)c2)ncc1C(F)(F)F [Compound I-335, N-(2-((2-((6-methoxypyridazin-4-yl)amino)-5-(trifluoromethyl)pyrimidin-4-yl)amino)-5-methylphenyl)acrylamide]	> 1000 nM	E (provided a mass modification of ≧70%)
C=CC(=O)Nc1cc(C)ccc1Nc1nc(Nc2nc(OC)ccc2Cl)ncc1C(F)(F)F [Compound I-360, N-(2-((2-((3-chloro-6-methoxypyridin-2-yl)amino)-5-(trifluoromethyl)pyrimidin-4-yl)amino)-5-methylphenyl)acrylamide]	> 1000 nM	E (provided a mass modification of ≧70%)
C=CC(=O)Nc1cc(C)ccc1Nc1nc(Nc2cc(OC)cnc2Cl)ncc1C(F)(F)F [Compound I-361, N-(2-((2-((2-chloro-5-methoxypyridin-3-yl)amino)-5-(trifluoromethyl)pyrimidin-4-yl)amino)-5-methylphenyl)acrylamide]	< 100 nM	E (provided a mass modification of ≧70%)
C#CCOc1cc(C)c(Nc2ncc(C(F)(F)F)c(Nc3ccc(C)cc3NC(=O)C=C)n2)cc1C(N)=O [Compound I-362, 5-((4-((2-acrylamido-4-methylphenyl)amino)-5-(trifluoromethyl)pyrimidin-2-yl)amino)-4-methyl-2-(prop-2-yn-1-yloxy)benzamide]	> 1000 nM	E (provided a mass modification of ≧70%)
C=CC(=O)Nc1cc(C)ccc1Nc1nc(Nc2nc(O)ncc2Cl)ncc1C(F)(F)F [Compound I-363, N-(2-((2-((5-chloro-2-hydroxypyrimidin-4-yl)amino)-5-(trifluoromethyl)pyrimidin-4-yl)amino)-5-methylphenyl)acrylamide]	> 1000 nM	E (provided a mass modification of ≧70%)
C=CC(=O)Nc1cc(C)ccc1Nc1nc(Nc2nc(O)ncc2C)ncc1C(F)(F)F [Compound I-364, N-(2-((2-((2-hydroxy-5-methylpyrimidin-4-yl)amino)-5-(trifluoromethyl)pyrimidin-4-yl)amino)-5-methylphenyl)acrylamide]	< 100 nM	E (provided a mass modification of ≧70%)

Results, then the compound that gave them:

IC50 [1]	ERK1 Mass Mod (%) [2]	SMILES
< 100 nM	G (proived a mass modification ≦30%)	NC(=O)c1ccccc1Nc1nc(N[C@H]2CCCN(C(=O)CO)C2)ncc1C(F)(F)F [Compound I-307, (S)-2-((2-((1-(2-hydroxyacetyl)piperidin-3-yl)amino)-5-(trifluoromethyl)pyrimidin-4-yl)amino)benzamide]
> 1000 nM	G (proived a mass modification ≦30%)	CC(=O)N1CCC[C@H](Nc2ncc(C(F)(F)F)c(N[C@@H]3[C@H](C(N)=O)[C@H]4C=C[C@@H]3C4)n2)C1 [Compound I-309, (1R,2R,3S,4S)-3-((2-(((S)-1-acetylpiperidin-3-yl)amino)-5-(trifluoromethyl)pyrimidin-4-yl)amino)bicyclo[2.2.1]hept-5-ene-2-carboxamide]
< 100 nM	G (proived a mass modification ≦30%)	CC(C)S(=O)(=O)c1ccccc1Nc1nc(N[C@H]2CCCN(C(=O)CO)C2)ncc1C(F)(F)F [Compound I-310, (S)-2-hydroxy-1-(3-((4-((2-(isopropylsulfonyl)phenyl)amino)-5-(trifluoromethyl)pyrimidin-2-yl)amino)piperidin-1-yl)ethanone]
< 100 nM	G (proived a mass modification ≦30%)	CCC(=O)Nc1ccccc1Nc1nc(Nc2ccc3c(c2)CCCC(=O)N3CCCN)ncc1Cl [Compound I-314, N-(2-((2-((1-(3-aminopropyl)-2-oxo-2,3,4,5-tetrahydro-1H-benzo[b]azepin-7-yl)amino)-5-chloropyrimidin-4-yl)amino)phenyl)propionamide]
> 1000 nM	G (proived a mass modification ≦30%)	CCC(=O)Nc1ccccc1Nc1nc(Nc2ccc3c(c2OC)CCCC(=O)N3CC)ncc1Cl [Compound I-315, N-(2-((5-chloro-2-((1-ethyl-6-methoxy-2-oxo-2,3,4,5-tetrahydro-1H-benzo[b]azepin-7-yl)amino)pyrimidin-4-yl)amino)phenyl)propionamide]
< 100 nM	G (proived a mass modification ≦30%)	CCC(=O)Nc1ccccc1Nc1nc(N[C@H]2CCCN(C(C)=O)C2)ncc1C(F)(F)F [Compound I-317, (S)—N-(2-((2-((1-acetylpiperidin-3-yl)amino)-5-(trifluoromethyl)pyrimidin-4-yl)amino)phenyl)propionamide]
< 100 nM	G (proived a mass modification ≦30%)	CCC(=O)Nc1ccccc1Nc1nc(N[C@H]2CCCN(C(=O)CO)C2)ncc1C(F)(F)F [Compound I-318, (S)—N-(2-((2-((1-(2-hydroxyacetyl)piperidin-3-yl)amino)-5-(trifluoromethyl)pyrimidin-4-yl)amino)phenyl)propionamide]
> 1000 nM	E (provided a mass modification of ≧70%)	C=CC(=O)Nc1ccccc1Nc1nc(Nc2ccnc(NC)c2)ncc1C(F)(F)F [Compound I-321, N-(2-((2-((2-(methylamino)pyridin-4-yl)amino)-5-(trifluoromethyl)pyrimidin-4-yl)amino)phenyl)acrylamide]
